Measurements reported in ChEMBL document CHEMBL1123838, “Analgesic dipeptide derivatives. 3. Synthesis and structure-activity relationships of o-nitrophenyl-modified analogues of the analgesic compound H-Lys-Trp(NPS)-OMe” (1987).
Peptide text beside a SMILES is read from it.

Legend:
Assay type in all cases: functional
Mus musculus [1] = assay: Tested for analgesic activity, using Tail-Flick test in Mice at the dose of 1 ug/mouse administered icv after 5 min.
Mus musculus [2] = assay: Tested for analgesic activity, using Tail-Flick test in Mice at the dose of 2.5 ug/mouse administered icv after 5 min.
Mus musculus [3] = assay: Tested for analgesic activity, using Tail-Flick test in Mice at the dose of 2.5 ug/mouse administered icv after 30 min.
Mus musculus [4] = assay: Tested for analgesic activity, using Tail-Flick test in Mice at the dose of 1 ug/mouse administered icv after 30 min.
Mus musculus [5] = assay: Tested for analgesic activity, using Tail-Flick test in Mice at the dose of 0.5 ug/mouse administered icv after 60 min.
Mus musculus [6] = assay: Tested for analgesic activity, using Tail-Flick test in Mice at the dose of 1 ug/mouse administered icv after 60 min.
Mus musculus [7] = assay: Tested for analgesic activity, using Tail-Flick test in Mice at the dose of 0.5 ug/mouse administered icv after 30 min.
Mus musculus [8] = assay: Tested for analgesic activity, using Tail-Flick test in Mice at the dose of 0.5 ug/mouse administered icv after 5 min.
Mus musculus [9] = assay: Tested for analgesic activity, using Tail-Flick test in Mice at the dose of 2.5 ug/mouse administered icv after 60 min.
Mus musculus [10] = assay: Tested for analgesic activity, using Tail-Flick test in Mice at the dose of […] administered icv after 30 min
Mus musculus [11] = assay: Tested for analgesic activity, using Tail-Flick test in Mice at the dose of 0.1 ug/mouse administered icv after 60 min.
Mus musculus [12] = assay: Tested for analgesic activity, using Tail-Flick test in Mice at the dose of 0.1 ug/mouse administered icv after 5 min.
Mus musculus [13] = assay: Tested for analgesic activity, using Tail-Flick test in Mice at the dose of 0.1 ug/mouse administered icv after 30 min.
Mus musculus [14] = assay: Tested for analgesic activity, using Tail-Flick test in Mice at the dose of 0.5 ug/mouse administered icv after 5 min

Compound	Change (Mus musculus [1]) [%]	Change (Mus musculus [2]) [%]	Change (Mus musculus [3]) [%]	Change (Mus musculus [4]) [%]	Change (Mus musculus [5]) [%]	Change (Mus musculus [6]) [%]	Change (Mus musculus [7]) [%]	Change (Mus musculus [8]) [%]	Change (Mus musculus [9]) [%]	Change (Mus musculus [10]) [%]	Change (Mus musculus [11]) [%]	Change (Mus musculus [12]) [%]	Change (Mus musculus [13]) [%]	Change (Mus musculus [14]) [%]
COC(=O)C(Cc1cn(Sc2ccccc2NC(C)=O)c2ccccc12)NC(=O)C(N)CCCCN (configuration not stated)	25	27	26	20	5	15	-2	0	10	–	–	–	–	–
CSCC[C@H](N)C(=O)N[C@@H](C)C(=O)NCC(=O)NCC(=O)N[C@@H](Cc1ccc(O)cc1)C(N)=O (H-MAGGY-NH2)	210	–	–	118	35	45	–	–	–	76	-7	40	26	122
COC(=O)CCSn1cc(CC(NC(=O)C(N)CCCCN)C(=O)OC)c2ccccc21 (configuration not stated)	15	16	15	7	9	9	10	11	0	–	–	–	–	–
